Assays:
[1] = at this field strength (4.7 T); cited from earlier work
A549 flank tumor = assay: Tissue biodistribution by SF-ICPMS in A549-flank bearing mice; assay type: in vivo, mouse; conditions: 72 hours after administration; FIG. 16
Protocol: In this extension of Example 6, we further examined the in vivo biodistribution of Gd-DO3A-404 after it is administered. Specifically, tissue biodistribution was measured in A549-flank bearing mice 72 hours after administration of Gd-DO3A-404. Nude athymic mice were sacrificed, perfused and tissues were collected and quantitated for Gd by high-resolution (magnetic-sector) inductively-coupled plasma mass spectrometry (SF-ICPMS). n=3 mice.

[2] = test system: Orthotopic GSC 115 (human glioma stem cell model); assay: MRI uptake in orthotopic GSC 115 model; assay type: in vivo; conditions: 24 hours post administration; FIG. 18 right
Protocol: Orthotopic GSC 115 was imaged at 24 hours post administration of Gd-DO3A-404. GSC is a human glioma stem cell model which was isolated from a human glioma patient.

[3] = Free Gd concentration by CHELEX solid phase extraction and ICP-MS; assay type: physicochemical; conditions: CHELEX solid phase extraction, magnetic sector ICP-MS
Description: After considering other alternatives, we decided to determine free Gd concentration by selective chelation and separation of the free Gd. We separated the Gd-DO3A-404 complex from free Gd (III) ion by CHELEX® solid phase extraction (as described by Raju, et al., J. Anal. At. Spectrom. 25 (2010), 1573-1580). Specifically, using a CHELEX® solid phase extraction column comprising an immobilized ligand (iminodiacetate) with very high affinity for free ion species of multi-valent transition and rare-earth metals, Gd was retained and then eluted using a known ratio of chelated Gd-DO3A-404 and acid-digested Gd-DO3A-404. The sample was the analyzed by magnetic sector ICP-MS to determine the concentration of free Gd.

[4] = test system: flank A549 tumor (human non small cell lung cancer) xenograft; assay: In vivo MRI of flank A549 xenograft mice; parameters: species or system mouse
Protocol: For proof-of-concept in vivo imaging of tumor uptake of the Gd-DO3A-404 agent, nude athymic mouse with a flank A549 tumor (non small cell lung cancer) xenograft was scanned. […] Mice were anesthetized and scanning performed prior to contrast administration and at 1, 4, 24, 48, and 72 hours following contrast delivery. Imaging was performed on a 4.7 T Varian preclinical MRI scanner with a volume quadrature coil. T1-weighted images were acquired at all imaging time points using a fast spin echo scan with the following pulse sequence parameters: repetition time (TR)=206 ms, echo spacing=9 ms, echo train length=2, effective echo time (TE)=9 ms, 10 averages, with a 40×40 mm^2 field of view, 192×192 matrix, 10 slices of thickness lmm each.

[5] = test system: orthotopic glioblastoma stem cell line 12.6; assay: Brain tumor uptake by MRI in orthotopic glioblastoma model; assay type: in vivo, mouse
Protocol: To investigate the use of Gd-DO3A-404 to detect tumors and metastases in situ, in particular, in the brain, we created an orthotopic glioblastoma model using cancer stem cells injected into the brain. To create the model, brains of mice were injected with cells from orthotopic glioblastoma stem cell line 12.6. After sufficient tumor growth, monitored with T2-weighted MRI, we imaged subjects pre-contrast and after delivery (24-72 hours) of two different doses of Gd-DO3A-404 (2.5 or 3.7 mg; ˜0.12−0.18 mmole/kg).

[6] = test system: Alpha-beta crystalline overexpressing mice (triple negative breast cancer model); assay: MRI uptake in triple-negative breast cancer model; assay type: in vivo, mouse; conditions: over 48 hours post-administration; FIG. 17
Protocol: Alpha-beta crystalline overexpressing mice (a triple negative breast cancer model) underwent MR imaging pre administration and 24 hours and 48 hours post-administration of […] (n=4).

[7] = MR relaxivity (r1, r2) at 4.7 T; assay type: physicochemical
Protocol: For initial studies, relaxivity was measured at 4.7 T. Longitudinal relaxivity, which is defined by the linear relationship between R1 relaxation rate and concentration, was measured using an inversion recovery spin echo sequence.
Higher relaxivity results in brighter signal on a T1-weighted image, and thus indicates greater T1-weighted signal enhancement potential. […]
Similarly, by plotting R2 versus concentration at five different concentrations of the Gd-DOTA-404 agent and determining the equation of the resulting line (see FIG. 3, right panel), we calculated a transverse relaxivity in plasma of 20.4 s−1/mM.

[8] = test system: flank U87 (human glioma) xenograft; assay: Simultaneous PET/MR imaging of U87 flank xenograft rat; assay type: in vivo
Protocol: Simultaneous imaging was performed using a clinical Pet/MRI scanner. ^64Cu-DO3A-404 has the same structure as Gd-DO3A-404, except that ^64Cu, a positron emitting radionuclide, is chelated to the chelating moiety instead of Gd. ^64Cu-DO3A-404 was synthesized (and can be synthesized using the methods disclosed herein; see, e.g., Example 1). Both the ^64Cu-DO3A-404 and Gd-DO3A-404 chelates were injected simultaneously into a rat with a flank U87 (human glioma) xenograft.
T1-weighted scans of the U87 flank xenograft were obtained using the clinical 3.0 T PET/MR. Rats were imaged pre- and 24 hours post-administration of the Gd-DO3A-404.
Simultaneous PET/MR scans of the U87-flank bearing rat 24 hours post-simultaneous administration of both Gd-DO3A-404 (the MRI contrast agent) and ^64Cu-DO3A-404 (the PET contrast agent) were obtained.

[9] = test system: flank U87 (human glioma) tumor; assay: In vivo MRI of flank U87 xenograft mice
Protocol: To test uptake and retention in rodent models of human cancer, flank xenografts were established in mice for two distinct tumor types, A549 (human non small cell lung cancer, NSCLC) and U87 (human glioma). N=3 for each model. For pre-contrast imaging, T1-W images of the tumor and abdomen (FIG. 4; 2 leftmost images) and T1 maps of the tumor were obtained.
At time zero (“contrast”), 2.5 mg of Gd-DO3A-404 (˜12 mmol/kg body mass) was delivered into the mice by intravenous injection. Animals were scanned pre-contrast and at various time points between one hour and seven days post-contrast (after one hour, 24 hours, 48 hours, three days, four days and seven days). T1 maps of the tumor were acquired for each time point, along with T1-weighted images of the tumor and the abdomen (see FIGS. 4 and 5).
We the quantified the tumor to muscle ratio and compare it to baseline scans.

[10] = In vivo biodistribution by T1-weighted SPGR MRI of the abdomen; parameters: species or system mouse; conditions: 2.5 mg intravenous
Protocol: In this example, we determined the in vivo biodistribution of the Gd-DO3A-404 after the contrast agent was administered (see Example 5). During the course of performing the experiments described in Example 4, we also acquired T1-weighted spoiled gradient (SPGR) images in the abdomen of the mice, to observe biodistribution. Abdominal cross-sections imaged included the myocardium (FIGS. 8-12, top image), the liver (FIGS. 8-12, center image), and a kidney (FIGS. 8-12, bottom image). Images are shown pre-contrast (FIG. 8), and at one hour (FIG. 9), 24 hours (FIG. 10), four days (FIG. 11) and seven days post-contrast (FIG. 12).

[11] = test system: orthotopic U87 xenografts; assay: MRI uptake in orthotopic U87 xenografts; assay type: in vivo, mouse; conditions: NOD-SCID mice; 24 and 48 hours post administration; FIG. 18 left
Protocol: NOD-SCID mice with orthotopic U87 xenografts were imaged pre-administration, 24 hours, and 48 hours post administration of Gd-DO3A-404.

## CNC[C@H](O)[C@@H](O)[C@H](O)[C@H](O)CO.O=C([O-])CN1CCN(CC(=O)[O-])CCN(CC(=O)O)CCN(CC(=O)[O-])CC1.[Gd+3] [DOTAREM®]
[1]
  relaxivities of clinical T1 shortening contrast agents: 2 to 3 s⁻¹ mM⁻¹

## C[N+](C)(C)CCOP(=O)([O-])OCCCCCCCCCCCCCCCCCCc1ccc(NC(=O)CN2CCN(CC(=O)[O-])CCN(CC(=O)[O-])CCN(CC(=O)[O-])CC2)cc1.[Gd+3] [Gd-DO3A-404]
A549 flank tumor
  tissue biodistribution (Gd by SF-ICPMS): selectively taken up by tumor tissue
[2]
  tumor uptake by T1-weighted MRI: differentially taken up by the tumor tumor tissue
[3]
  free Gd concentration: 0.081%
[4]; 2.5 mg intravenous, A549, versus pre-contrast, FIG. 6
  tumor to muscle T1-weighted signal ratio following delivery: approximately doubled
[4]; 2.5 mg intravenous, NSCLC model, FIG. 4
  time of maximum tumor uptake: 24-48 hours post-contrast
[4]; 2.5 mg intravenous, NSCLC model, FIG. 5
  duration of tumor uptake: maintained over several days
[4]; 2.7 mg via tail vein injection, scans 1-72 hours, FIG. 2
  MRI imaging of the tumor (T1-weighted enhancement): significantly enhanced by 24 hours post-injection
[4]; A549, 48 hours post-contrast versus pre-contrast, FIG. 7
  tumor R1 relaxation rate: significantly increased
[5]; increased dose 3.7 mg, FIG. 15 bottom panel
  brain tumor uptake: uptake in one subject
[5]; lower dose 2.5 mg, FIG. 15 upper panel
  brain tumor uptake: no brain uptake was observed
[6]
  uptake in breast cancer tissue by MRI: taken up by and localized to the breast cancer tissue
[7]; in excipient
  Longitudinal relaxivity (r1): 5.84 s⁻¹ mM⁻¹
[7]; in plasma
  Longitudinal relaxivity (r1): 5.74 s⁻¹ mM⁻¹
[7]; in saline
  Longitudinal relaxivity (r1): 5.68 s⁻¹ mM⁻¹
[8]; 24 hours post-administration, FIG. 19
  tumor uptake by T1-weighted MR (clinical 3.0 T PET/MR): selective tumor uptake
[8]; 24 hours post-simultaneous administration, FIG. 20
  tumor enhancement in MRI images (simultaneous PET/MR): enhanced enhances in both the T1 and T2 MRI images
[9]; 2.5 mg intravenous, U87, versus pre-contrast, FIG. 6
  tumor to muscle T1-weighted signal ratio following delivery: approximately doubled
[9]; 2.5 mg intravenous, U87 model, FIG. 4
  onset of tumor uptake: already observable at one hour after delivery
[9]; 2.5 mg intravenous, U87 model, FIG. 5
  level and duration of tumor uptake compared with NSCLC model: appeared to reach higher levels and was maintained for a longer time period
[9]; U87, 48 hours post-contrast versus pre-contrast, FIG. 7
  tumor R1 relaxation rate: significantly increased
[10]
  P-kinetic profile: including hepatobiliary excretion, that is similar to that of related alkylphosphocholine analogs
[10]; FIGS. 8-12
  circulation in the myocardium and blood pool: circulates for nearly up to a day
[10]; up to seven days, FIGS. 8-12
  clearance from liver and kidney: substantially cleared over time, with more rapid clearance occurring through the liver, and more prolonged clearance occurring through the kidney
[11]
  tumor uptake by T1-weighted MRI: differentially taken up by the tumor tissue

Source: US12564635B2, “Long-lived gadolinium based tumor targeted imaging and therapy agents” (WISCONSIN ALUMNI RESEARCH FOUNDATION, priority 2015, dated 2026)
